# Measurements taken from patent publication US8012961B2, “Tricyclic antibiotics” (Actelion Pharmaceutical Ltd., priority 2008, dated 2011).
# System: M. catarrhalis A894
# Experiment: MIC determination by microdilution in cation-adjusted Mueller-Hinton Broth (NCCLS)
# Type: cell-based
# Details: Moraxella catarrhalis, A894, microdilution method, pH of the test medium 7.2-7.3
# Description: These assays have been performed following the description given in “Methods for dilution Antimicrobial Susceptibility Tests for Bacteria that Grow Aerobically, 4th ed.; Approved standard: NCCLS Document M7-A4; National Committee for Clinical Laboratory Standards: Villanova, Pa., USA, 1997”. Minimal inhibitory concentrations (MICs; mg/l) were determined in cation-adjusted Mueller-Hinton Broth by a microdilution method following NCCLS guidelines (National Committee for Clinical Laboratory Standards. Methods for Dilution Antimicrobial Susceptibility). The pH of the test medium was 7.2-7.3. All Example compounds were tested against several Gram positive and Gram negative bacteria such as S. aureus, E. faecalis, S. pneumoniae, M. catarrhalis or E.coli.
row,MIC [µg/mL],Compound
1,≤ 0.031,"COc1ccc2ncc3c(c2n1)C(CN1CC[C@@H](CNCc2cc4c(cn2)OCCO4)C1)CO3 (mixture of isomers) [Example 12, (2,3-dihydro-[1,4]dioxino[2,3-c]pyridin-7-ylmethyl) -[(3S)-1-((1RS)-8-methoxy-1,2-dihydro-3-oxa-5,9-diaza-cyclopenta[a]naphthalen-1-ylmethyl)-pyrrolidin-3-ylmethyl]-amine]"
2,≤ 0.031,"COc1ccc2ncc3c(c2n1)C(CN1CC[C@@H](CNC/C=C/c2cc(F)ccc2F)C1)CO3 (mixture of isomers) [Example 13, [(E)-3-(2,5-difluoro-phenyl)-allyl]-[(3S)-1-((1RS)-8-methoxy-1,2-dihydro-3-oxa-5,9-diaza-cyclopenta[a]naphthalen-1-ylmethyl)-pyrrolidin-3-ylmethyl]-amine]"
3,≤ 0.031,"COc1ccc2ncc3c(c2n1)C(CN1CC[C@@H](CNCc2ccc4c(n2)NC(=O)CS4)C1)CO3 (mixture of isomers) [Example 14, 6-({[(3S)-1-((1RS)-8-methoxy-1,2-dihydro-3-oxa-5,9-diaza-cyclopenta[a]naphthalen-1-ylmethyl)-pyrrolidin-3-ylmethyl]-amino}-methyl)-4H-pyrido[3,2-b][1,4]thiazin-3-one]"
4,≤ 0.031,"COc1ccc2ncc3c(c2n1)C(CN1CCO[C@@H](CNCc2ccc4c(n2)NC(=O)CS4)C1)CO3 (mixture of isomers) [Example 25, 6-({[(2S)-4-((1RS)-8-methoxy-1,2-dihydro-3-oxa-5,9-diaza-cyclopenta[a]naphthalen-1-ylmethyl)-morpholin-2-ylmethyl]-amino}-methyl)-4H-pyrido[3,2-b][1,4]thiazin-3-one]"
5,≤ 0.031,"COc1ccc2ncc3c(c2n1)C(CN1CCO[C@@H](CNCc2cc4c(cn2)OCCO4)C1)CO3 (mixture of isomers) [Example 26, (2,3-dihydro-[1,4]dioxino[2,3-c]pyridin-7-ylmethyl) -[(2S)-4-((1RS)-8-methoxy-1,2-dihydro-3-oxa-5,9-diaza-cyclopenta[a]naphthalen-1-ylmethyl)-morpholin-2-ylmethyl]-amine]"
6,≤ 0.031,"COc1ccc2ncc3c(c2n1)C(CN1CCC[C@@H](CNCc2ccc4c(n2)NC(=O)CS4)C1)CO3 (mixture of isomers) [Example 28, 6-({[(3S)-1-((1RS)-8-methoxy-1,2-dihydro-3-oxa-5,9-diaza-cyclopenta[a]naphthalen-1-ylmethyl)-piperidin-3-ylmethyl]-amino}-methyl)-4H-pyrido[3,2-b][1,4]thiazin-3-one]"
7,≤ 0.031,"COc1ccc2ncc3c(c2n1)C(CN1CCC[C@@H](CNCc2ccc4c(c2)NC(=O)CO4)C1)CO3 (mixture of isomers) [Example 31, 6-({[(3S)-1-((1RS)-8-methoxy-1,2-dihydro-3-oxa-5,9-diaza-cyclopenta[a]naphthalen-1-ylmethyl)-piperidin-3-ylmethyl]-amino}-methyl)-4H-benzo[1,4]oxazin-3-one]"
8,≤ 0.031,"COc1ccc2ncc3c(c2n1)C(CN1CCC[C@@H](CNCc2cc4c(nn2)OCCO4)C1)CO3 (mixture of isomers) [Example 39, (6,7-dihydro-[1,4]dioxino[2,3-c]pyridazin-3-ylmethyl)-[(3S)-1-((1RS)-8-methoxy-1,2-dihydro-3-oxa-5,9-diaza-cyclopenta[a]naphthalen-1-ylmethyl)-piperidin-3-ylmethyl]-amine]"
9,≤ 0.031,"COc1ccc2ccc3c(c2n1)C(CN1CCC(NC/C=C/c2cc(F)ccc2F)CC1)CO3 (racemic) [Example 1, rac-[(E)-3-(2,5-difluoro-phenyl)-allyl]-[1-(2-methoxy-8,9-dihydro-furo[2,3-h]quinolin-9-ylmethyl)-piperidin-4-yl]-amine]"
10,≤ 0.031,"COc1ccc2ccc3c(c2n1)C(CN1CCC(NCc2cc4c(cn2)OCCO4)CC1)CO3 (racemic) [Example 2, rac-(2,3-dihydro-[1,4]dioxino[2,3-c]pyridin-7-ylmethyl)-[1-(2-methoxy-8,9-dihydro-furo[2,3-h]quinolin-9-ylmethyl)-piperidin-4-yl]-amine]"
11,≤ 0.031,"COc1ccc2ccc3c(c2n1)C(CN1CCC(NCc2cc4c(nn2)OCCO4)CC1)CO3 (racemic) [Example 3, rac-(6,7-dihydro-[1,4]dioxino[2,3-c]pyridazin-3-ylmethyl)-[1-(2-methoxy-8,9-dihydro-furo[2,3-h]quinolin-9-ylmethyl)-piperidin-4-yl]-amine]"
12,≤ 0.031,"COc1ccc2ccc3c(c2n1)C(CN1CCC(NCc2ccc4c(n2)NC(=O)CS4)CC1)CO3 (racemic) [Example 4, rac-6-{[1-(2-methoxy-8,9-dihydro-furo[2,3-h]quinolin-9-ylmethyl) -piperidin-4-ylamino]-methyl}-4H-pyrido[3,2-b][1,4]thiazin-3-one]"
13,≤ 0.031,"COc1ccc2ccc3c(c2n1)C(CN1CCC(NCc2ccc4c(n2)NC(=O)CO4)CC1)CO3 (racemic) [Example 5, rac-6-{[1-(2-methoxy-8,9-dihydro-furo[2,3-h]quinolin-9-ylmethyl) -piperidin-4-ylamino]-methyl}-4H-pyrido[3,2-b][1,4]oxazin-3-one]"
14,≤ 0.031,"COc1ccc2ncc3c(c2n1)C(CN1CCC(NCc2ccc4c(n2)NC(=O)CO4)CC1)CO3 (racemic) [Example 6, rac-6-{[1-(8-methoxy-1,2-dihydro-3-oxa-5,9-diaza-cyclopenta[a]naphthalen-1-ylmethyl)-piperidin-4-ylamino]-methyl}-4H-pyrido[3,2-b][1,4]oxazin-3-one]"
15,≤ 0.031,"COc1ccc2ncc3c(c2n1)C(CN1CCC(NCc2ccc4c(n2)NC(=O)CS4)CC1)CO3 (racemic) [Example 7, rac-6-{[1-(8-methoxy-1,2-dihydro-3-oxa-5,9-diaza-cyclopenta[a]naphthalen-1-ylmethyl)-piperidin-4-ylamino]-methyl}-4H-pyrido[3,2-b][1,4]thiazin-3-one]"
16,≤ 0.031,"COc1ccc2ncc3c(c2n1)C(CN1CCC(NCc2cc4c(nn2)OCCO4)CC1)CO3 (racemic) [Example 8, rac-(6,7-dihydro-[1,4]dioxino[2,3-c]pyridazin-3-ylmethyl)-[1-(8-methoxy-1,2-dihydro-3-oxa-5,9-diaza-cyclopenta[a]naphthalen-1-ylmethyl) -piperidin-4-yl]-amine]"
17,≤ 0.031,"COc1ccc2ncc3c(c2n1)C(CN1CCC(NCc2cc4c(cn2)OCCO4)CC1)CO3 (racemic) [Example 9, rac-(2,3-dihydro-[1,4]dioxino[2,3-c]pyridin-7-ylmethyl)-[1-(8-methoxy-1,2-dihydro-3-oxa-5,9-diaza-cyclopenta[a]naphthalen-1-ylmethyl)-piperidin-4-yl]-amine]"
18,≤ 0.031,"COc1ccc2ncc3c(c2n1)C(CN1CCC(NCc2ccc4c(c2)OCCO4)CC1)CO3 (racemic) [Example 10, rac-(2,3-dihydro-benzo[1,4]dioxin-6-ylmethyl)-[1-(8-methoxy-1,2-dihydro-3-oxa-5,9-diaza-cyclopenta[a]naphthalen-1-ylmethyl)-piperidin-4-yl]-amine]"
19,0.125,"COc1ccc2ccc3c(c2n1)C(CN1CCC(NCc2ccc4c(n2)OCCO4)CC1)CO3 (racemic) [Example 11, rac-(2,3-dihydro-[1,4]dioxino[2,3-b]pyridin-6-ylmethyl)-[1-(2-methoxy-8,9-dihydro-furo[2,3-h]quinolin-9-ylmethyl)-piperidin-4-yl]-amine]"
20,≤ 0.031,"COc1ccc2ccc3c(c2n1)C(CN1CCC(NCc2ccc4c(c2)NC(=O)CO4)CC1)CO3 (racemic) [Example 15, rac-6-{[1-(2-methoxy-8,9-dihydro-furo[2,3-h]quinolin-9-ylmethyl) -piperidin-4-ylamino]-methyl}-4H-benzo[1,4]oxazin-3-one]"

# Same assay, conditions: microdilution method, pH of the test medium 7.2-7.3
row,MIC M. catarrhalis A894,Compound
1,≦0.031 mg/l,"COc1ccc2ncc3c(c2n1)C(CN1[C@@H]2CC[C@H]1C[C@H](NCc1cc4c(cn1)OCCO4)C2)CO3 (mixture of isomers) [Example 20, (2,3-dihydro-[1,4]dioxino[2,3-c]pyridin-7-ylmethyl) -[(3-exo)-8-((1RS)-8-methoxy-1,2-dihydro-3-oxa-5,9-diaza-cyclopenta[a]naphthalen-1-ylmethyl)-8-aza-bicyclo[3.2.1]oct-3-yl]-amine]"
2,≦0.031 mg/l,"COc1ccc2ncc3c(c2n1)C(CN1C2CCC1CC(NC/C=C/c1cc(F)ccc1F)C2)CO3 (racemic) [Example 21, [(E)-3-(2,5-difluoro-phenyl)-allyl]-[(3-exo)-8-((1RS)-8-methoxy-1,2-dihydro-3-oxa-5,9-diaza-cyclopenta[a]naphthalen-1-ylmethyl)-8-aza-bicyclo[3.2.1]oct-3-yl]-amine]"
3,≦0.031 mg/l,"COc1ccc2ncc3c(c2n1)C(CN1C2CCC1CC(NCc1ccc4c(n1)NC(=O)CO4)C2)CO3 (racemic) [Example 22, 6-{[(3-exo)-8-((1RS)-8-methoxy-1,2-dihydro-3-oxa-5,9-diaza-cyclopenta[a]naphthalen-1-ylmethyl)-8-aza-bicyclo[3.2.1]oct-3-ylamino]-methyl}-4H-pyrido[3,2-b][1,4]oxazin-3-one]"
4,≦0.031 mg/l,"COc1ccc2ncc3c(c2n1)C(CN1[C@@H]2CC[C@H]1C[C@H](NCc1ccc4c(n1)NC(=O)CS4)C2)CO3 (mixture of isomers) [Example 23, 6-{[(3-exo)-8-((1RS)-8-methoxy-1,2-dihydro-3-oxa-5,9-diaza-cyclopenta[a]naphthalen-1-ylmethyl)-8-aza-bicyclo[3.2.1]oct-3-ylamino]-methyl}-4H-pyrido[3,2-b][1,4]thiazin-3-one]"
5,≦0.031 mg/l,"COc1ccc2ncc3c(c2n1)C(CN1CCO[C@@H](CNCc2ccc4c(n2)NC(=O)CO4)C1)CO3 (mixture of isomers) [Example 24, 6-({[(2S)-4-((1RS)-8-methoxy-1,2-dihydro-3-oxa-5,9-diaz-cyclopenta[a]naphthalen-1-ylmethyl)-morpholin-2-ylmethyl]-amino}-methyl) -4H-pyrido[3,2-b][1,4]oxazin-3-one]"
